The source of these data is US12662465B2, “EGFR inhibitors” (Blueprint Medicines Corporation, priority 2021, dated 2026).

The structures appear in SMILES notation. Read-outs that look alike come from different tables or passages of the source.

In experiment [1] the target is T1, EGFR enzyme (Homo sapiens, UniProt P00533).
T1 construct: From knowledge only, the SignalChem E10-1xx 'G' products are GST-tagged cytoplasmic-domain constructs
In words: Biochemical EGFR inhibition assays (Biological Example 1), enzyme form not specified. To be noted: Biological Example/Assay 1; read-out: inhibitory activity.

In experiment [2] the test system is EGFR M+ NSCLC patients. To be noted: first line (1L), NSCLC harboring del19 and L858R mutations; cited from earlier work.
Experiment [3] concerns the target T2, EGFR L858R (Homo sapiens, UniProt P00533, L858R).
T2 construct: purchased SignalChem E10-122BG
In words: Biochemical EGFR inhibition assay (Caliper mobility shift), EGFR L858R. To be noted: read-out: Enz EGFR_L858R IC50.

For experiment [4], the target named is intracellular phosphorylation of EGFR (Tyr1068) in PC-9 cells (Ex19Del) (Homo sapiens, UniProt P00533, DEL746-750). In words: PC-9 pEGFR AlphaLISA assay. The class given is cell-based. To be noted: 4 hours compound incubation, read-out: Ext pEGFR_PC-9 Ex19Del IC50.
For experiment [5], the target named is T3, EGFR (d746-750) (Homo sapiens, UniProt P00533, DEL746-750).
T3 construct: purchased SignalChem E10-122JG
Description: Biochemical EGFR inhibition assay (Caliper mobility shift), EGFR (d746-750). To be noted: read-out: Enz EGFR_Exon19-del746-750 IC50.

Where [6] appears, read: 1.0 mM ATP or ATP Km, room temperature (25° C.).

Chain of intracellular phosphorylation of EGFR (Tyr1068) in PC-9 cells (Ex19Del) (P00533 with tags, fused parts or gaps DEL746-750): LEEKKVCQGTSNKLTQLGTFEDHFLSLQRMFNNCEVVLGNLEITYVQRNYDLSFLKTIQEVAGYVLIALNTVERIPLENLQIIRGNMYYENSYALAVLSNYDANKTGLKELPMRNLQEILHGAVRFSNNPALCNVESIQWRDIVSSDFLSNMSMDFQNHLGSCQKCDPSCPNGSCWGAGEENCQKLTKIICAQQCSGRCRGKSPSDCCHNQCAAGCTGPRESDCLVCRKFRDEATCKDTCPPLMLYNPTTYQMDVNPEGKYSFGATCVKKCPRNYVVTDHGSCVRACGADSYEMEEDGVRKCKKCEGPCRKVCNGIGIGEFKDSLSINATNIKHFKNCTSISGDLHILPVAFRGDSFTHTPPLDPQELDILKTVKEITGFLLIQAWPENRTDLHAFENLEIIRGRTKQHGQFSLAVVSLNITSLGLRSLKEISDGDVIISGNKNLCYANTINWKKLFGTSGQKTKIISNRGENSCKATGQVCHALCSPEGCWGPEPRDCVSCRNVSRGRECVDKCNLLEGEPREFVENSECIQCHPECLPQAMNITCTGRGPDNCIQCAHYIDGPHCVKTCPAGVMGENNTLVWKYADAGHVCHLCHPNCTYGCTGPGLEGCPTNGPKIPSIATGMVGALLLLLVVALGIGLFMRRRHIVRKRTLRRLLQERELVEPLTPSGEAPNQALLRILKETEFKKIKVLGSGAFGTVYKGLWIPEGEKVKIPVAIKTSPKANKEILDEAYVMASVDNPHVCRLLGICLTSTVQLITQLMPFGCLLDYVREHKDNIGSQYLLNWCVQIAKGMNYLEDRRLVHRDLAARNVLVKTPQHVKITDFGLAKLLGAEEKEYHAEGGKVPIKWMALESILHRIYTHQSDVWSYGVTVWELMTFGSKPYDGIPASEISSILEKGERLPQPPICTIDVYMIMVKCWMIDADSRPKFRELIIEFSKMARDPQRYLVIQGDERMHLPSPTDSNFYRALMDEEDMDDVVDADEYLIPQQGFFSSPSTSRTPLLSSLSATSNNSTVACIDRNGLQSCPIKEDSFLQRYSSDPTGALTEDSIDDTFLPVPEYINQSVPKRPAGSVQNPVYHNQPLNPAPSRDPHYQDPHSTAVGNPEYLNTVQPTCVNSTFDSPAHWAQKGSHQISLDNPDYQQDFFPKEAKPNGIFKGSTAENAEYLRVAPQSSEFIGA
T3 sequence (P00533 with tags, fused parts or gaps DEL746-750 limits assumed): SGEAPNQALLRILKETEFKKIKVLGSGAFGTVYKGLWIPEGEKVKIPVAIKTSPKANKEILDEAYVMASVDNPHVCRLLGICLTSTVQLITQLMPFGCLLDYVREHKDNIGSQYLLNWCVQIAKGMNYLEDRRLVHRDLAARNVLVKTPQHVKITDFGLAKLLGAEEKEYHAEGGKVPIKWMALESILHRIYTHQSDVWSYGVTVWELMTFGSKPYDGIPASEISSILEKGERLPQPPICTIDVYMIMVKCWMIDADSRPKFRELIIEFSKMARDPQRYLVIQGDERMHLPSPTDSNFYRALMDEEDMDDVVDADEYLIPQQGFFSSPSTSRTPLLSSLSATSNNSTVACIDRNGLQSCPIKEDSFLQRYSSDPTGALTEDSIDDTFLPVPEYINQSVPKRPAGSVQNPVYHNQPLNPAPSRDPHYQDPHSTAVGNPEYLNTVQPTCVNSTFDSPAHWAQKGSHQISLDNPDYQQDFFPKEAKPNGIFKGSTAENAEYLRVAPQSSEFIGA
T2 sequence (P00533 25-1210 L858R): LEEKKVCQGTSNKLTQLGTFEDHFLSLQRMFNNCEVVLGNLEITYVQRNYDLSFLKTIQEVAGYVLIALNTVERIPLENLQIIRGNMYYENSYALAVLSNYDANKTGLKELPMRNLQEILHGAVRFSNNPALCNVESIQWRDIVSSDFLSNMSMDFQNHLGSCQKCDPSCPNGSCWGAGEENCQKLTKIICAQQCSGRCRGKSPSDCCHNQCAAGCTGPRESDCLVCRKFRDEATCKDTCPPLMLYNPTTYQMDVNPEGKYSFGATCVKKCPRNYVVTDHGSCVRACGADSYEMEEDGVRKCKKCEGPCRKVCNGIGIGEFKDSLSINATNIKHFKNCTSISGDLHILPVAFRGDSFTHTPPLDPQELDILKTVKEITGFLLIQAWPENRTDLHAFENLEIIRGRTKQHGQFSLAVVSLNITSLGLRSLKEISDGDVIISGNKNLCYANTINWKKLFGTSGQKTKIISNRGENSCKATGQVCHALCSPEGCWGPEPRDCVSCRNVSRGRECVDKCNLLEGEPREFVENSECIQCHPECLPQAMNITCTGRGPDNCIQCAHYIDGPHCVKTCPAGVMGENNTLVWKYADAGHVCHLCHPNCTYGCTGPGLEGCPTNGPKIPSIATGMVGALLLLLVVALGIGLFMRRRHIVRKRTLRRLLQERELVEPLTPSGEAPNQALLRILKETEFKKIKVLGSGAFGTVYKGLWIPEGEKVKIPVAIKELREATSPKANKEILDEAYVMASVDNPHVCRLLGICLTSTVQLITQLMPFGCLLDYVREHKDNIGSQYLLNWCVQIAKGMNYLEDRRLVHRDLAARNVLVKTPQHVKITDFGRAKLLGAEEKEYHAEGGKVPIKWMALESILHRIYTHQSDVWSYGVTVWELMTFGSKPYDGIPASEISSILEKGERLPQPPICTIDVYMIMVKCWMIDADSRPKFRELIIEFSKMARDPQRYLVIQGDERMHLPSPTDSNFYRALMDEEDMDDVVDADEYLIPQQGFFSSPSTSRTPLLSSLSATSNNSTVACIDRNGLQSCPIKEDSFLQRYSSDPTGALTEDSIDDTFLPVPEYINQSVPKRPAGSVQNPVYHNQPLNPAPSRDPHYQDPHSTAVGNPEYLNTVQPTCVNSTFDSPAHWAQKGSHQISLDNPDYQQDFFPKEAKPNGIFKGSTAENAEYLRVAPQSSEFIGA
T1 sequence (P00533 whole entry L858R, form open): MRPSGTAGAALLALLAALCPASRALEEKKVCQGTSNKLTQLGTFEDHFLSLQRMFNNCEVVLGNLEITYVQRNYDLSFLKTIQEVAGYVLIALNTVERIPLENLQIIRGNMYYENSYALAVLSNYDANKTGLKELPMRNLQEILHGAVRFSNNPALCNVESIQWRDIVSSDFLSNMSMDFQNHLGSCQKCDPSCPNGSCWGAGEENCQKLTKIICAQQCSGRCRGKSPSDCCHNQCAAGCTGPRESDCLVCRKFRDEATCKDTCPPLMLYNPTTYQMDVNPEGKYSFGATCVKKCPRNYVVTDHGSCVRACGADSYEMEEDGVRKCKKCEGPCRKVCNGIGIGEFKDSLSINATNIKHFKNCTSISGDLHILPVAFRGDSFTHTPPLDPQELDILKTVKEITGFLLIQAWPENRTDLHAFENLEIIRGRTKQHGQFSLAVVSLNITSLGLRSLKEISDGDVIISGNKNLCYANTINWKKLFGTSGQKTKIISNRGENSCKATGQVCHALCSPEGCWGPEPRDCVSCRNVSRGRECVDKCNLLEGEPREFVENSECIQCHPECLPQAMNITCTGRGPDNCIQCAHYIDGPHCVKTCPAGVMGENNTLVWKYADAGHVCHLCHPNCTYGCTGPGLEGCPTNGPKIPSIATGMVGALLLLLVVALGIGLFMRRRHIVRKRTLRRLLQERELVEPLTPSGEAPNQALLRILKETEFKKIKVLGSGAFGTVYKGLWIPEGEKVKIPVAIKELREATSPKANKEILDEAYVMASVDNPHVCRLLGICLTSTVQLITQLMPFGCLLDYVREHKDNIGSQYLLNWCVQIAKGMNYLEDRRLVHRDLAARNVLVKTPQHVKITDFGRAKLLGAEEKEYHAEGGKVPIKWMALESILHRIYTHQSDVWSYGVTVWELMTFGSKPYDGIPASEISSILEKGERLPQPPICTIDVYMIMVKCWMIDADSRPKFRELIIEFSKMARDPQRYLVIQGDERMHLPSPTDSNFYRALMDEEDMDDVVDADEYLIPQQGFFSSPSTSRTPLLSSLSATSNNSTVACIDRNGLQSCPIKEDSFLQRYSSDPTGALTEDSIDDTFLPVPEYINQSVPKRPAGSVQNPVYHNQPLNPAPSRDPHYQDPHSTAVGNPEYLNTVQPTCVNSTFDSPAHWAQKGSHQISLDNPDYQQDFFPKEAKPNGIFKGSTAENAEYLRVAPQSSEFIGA

For `[2H]c1c(-c2cc(O[C@H](C)CN(C)C)c3c(Nc4ccc5ncccc5c4OC([2H])([2H])[2H])ncnc3c2)cnn1C`, in experiment [1], the IC50 was above 10000 nM.

Consider `C=CC(=O)Nc1cc(Nc2nccc(-c3cn(C)c4ccccc34)n2)c(OC)cc1N(C)CCN(C)C` [osimertinib], for which the “progression-free survival (PFS)” value in experiment [2] was 18.9 mo.

Consider `CCNC[C@@H](C)Oc1cc(-c2cnn(C)c2)cc2ncnc(Nc3ccc4ncccc4c3F)c12` [Example 102, (R)-5-((1-(ethylamino)propan-2-yl)oxy)-N-(5-fluoroquinolin-6-yl)-7-(1-methyl-1H-pyrazol-4-yl)quinazolin-4-amine], for which the IC50 in experiment [3] is 10.1 to 50 nM; in experiment [4], above 50.1 nM; in experiment [5], 10.1 to 50 nM.

`C[C@H](CN(C)C)Oc1cc(N2CCCC2=O)cc2ncnc(Nc3ccc4ncccc4c3F)c12` [Example 96, (R)-1-(5-((1-(dimethylamino)propan-2-yl)oxy)-4-((5-fluoroquinolin-6-yl)amino)quinazolin-7-yl)pyrrolidin-2-one]: the IC50 is 10.1 to 50 nM in experiment [3], at most 10 nM in experiment [4] and below 10 nM in experiment [5].

With `C[C@@H](Oc1cc(-c2cnn(C)c2)cc2ncnc(Nc3ccc4ncc(F)cc4c3)c12)C1COC1` [Example 3, (R)—N-(3-fluoroquinolin-6-yl)-7-(1-methyl-1H-pyrazol-4-yl)-5-(1-(oxetan-3-yl)ethoxy)quinazolin-4-amine], the IC50 is below 10 nM in experiment [3], at most 10 nM in experiment [4] and below 10 nM in experiment [5].

As for `C[C@H](CN(C)C)Oc1cc(-c2cnn(C)c2)cc2ncnc(Nc3ccc4ncc(F)cc4c3F)c12` [Example 104, (R)—N-(3,5-difluoroquinolin-6-yl)-5-((1-(dimethylamino)propan-2-yl)oxy)-7-(1-methyl-1H-pyrazol-4-yl)quinazolin-4-amine], the IC50 is 10.1 to 50 nM in experiment [3], 10.1 to 50 nM in experiment [4] and below 10 nM in experiment [5].

In the case of `Cc1ccc2cc(Nc3ncnc4cc(-c5cnn(C)c5)cc(O[C@H](C)CN(C)C)c34)ccc2n1` [Example 105, (R)-5-((1-(dimethylamino)propan-2-yl)oxy)-7-(1-methyl-1H-pyrazol-4-yl)-N-(2-methylquinolin-6-yl)quinazolin-4-amine], the IC50 in experiment [3] was 10.1 to 50 nM; in experiment [4] it was 10.1 to 50 nM; in experiment [5] it was below 10 nM.

For `CN(C)C[C@@H](Oc1cc(-c2cnn(C)c2)cc2ncnc(Nc3ccc4ncccc4c3F)c12)C(F)F` (single isomer, unassigned) [Example 38, (R)-5-((3-(dimethylamino)-1,1-difluoropropan-2-yl)oxy)-N-(5-fluoroquinolin-6-yl)-7-(1-methyl-1H-pyrazol-4-yl)quinazolin-4-amine or (S)-5-((3-(dimethylamino)-1,1-difluoropropan-2-yl)oxy)-N-(5-fluoroquinolin-6-yl)-7-(1-methyl-1H-pyrazol-4-yl)quinazolin-4-amine], the values for the IC50 in experiment [3] (setting [6]), in experiment [4] and in experiment [5] (setting [6]) were 10.1 to 50 nM, 10.1 to 50 nM and below 10 nM, respectively.

For `C[C@H](Oc1cc(-c2cnn(C)c2)cc2ncnc(Nc3ccc4ncccc4c3F)c12)C1CCOCC1` [Example 20, (S)—N-(5-fluoroquinolin-6-yl)-7-(1-methyl-1H-pyrazol-4-yl)-5-(1-(tetrahydro-2H-pyran-4-yl)ethoxy)quinazolin-4-amine. or (R)—N-(5-fluoroquinolin-6-yl)-7-(1-methyl-1H-pyrazol-4-yl)-5-(1-(tetrahydro-2H-pyran-4-yl)ethoxy)quinazolin-4-amine], the results for the IC50 in experiment [3] (setting [6]), in experiment [4] and in experiment [5] (setting [6]) were below 10 nM, at most 10 nM and below 10 nM, respectively.

In the case of `C[C@@H](Oc1cc(-c2cnn(C(C)(C)CO)c2)cc2ncnc(Nc3ccc4ncccc4c3F)c12)C1COC1` [Example 47, (R)-2-(4-(4-(5-fluoroquinolin-6-ylamino)-5-(1-(oxetan-3-yl)ethoxy)quinazolin-7-yl)-1H-pyrazol-1-yl)-2-methylpropan-1-ol], the IC50 in experiment [3] is below 10 nM; in experiment [4], at most 10 nM; in experiment [5], below 10 nM.

In the case of `[2H]c1c(-c2cc(O[C@H](C)CN(C)C)c3c(Nc4ccc5ncccc5c4F)ncnc3c2)cnn1C` [Example 159, (R)-5-((1-(dimethylamino)propan-2-yl)oxy)-N-(5-fluoroquinolin-6-yl)-7-(1-methyl-1H-pyrazol-4-yl-5-d)quinazolin-4-amine], the IC50 in experiment [3] is 10.1 to 50 nM; in experiment [4], at most 10 nM; in experiment [5] it was below 10 nM.

For the compound `C[C@@H](Oc1cc(-c2cnn(C)c2)cc2ncnc(Nc3ccc4ncccc4c3F)c12)[C@@H]1COCCN1C` (single isomer, unassigned) [Example 125], the IC50 is below 10 nM in experiment [3] (setting [6]), 10.1 to 50 nM in experiment [4] and below 10 nM in experiment [5] (setting [6]).

Consider `C[C@@H](Oc1cc(N2CC3(COC3)C2)cc2ncnc(Nc3ccc4ncccc4c3F)c12)C1COC1` [Example 64], for which the IC50 in experiment [3] is below 10 nM; in experiment [4], at most 10 nM; in experiment [5], below 10 nM.

Consider `C[C@H](CN(C)C)Oc1cc(-c2cnn(C)c2)cc2ncnc(Nc3cnc4ncccc4c3)c12` [Example 40, (R)-5-((1-(dimethylamino)propan-2-yl)oxy)-7-(1-methyl-1H-pyrazol-4-yl)-N-(1,8-naphthyridin-3-yl)quinazolin-4-amine], for which the IC50 in experiment [3] is 10.1 to 50 nM; in experiment [4], at most 10 nM; in experiment [5] it was below 10 nM.

For `C[C@H](CN(C)C)Oc1cc(-c2cnn(C)c2)cc2ncnc(Nc3c(F)cc4ncccc4c3F)c12` [Example 106, (R)—N-(5,7-difluoroquinolin-6-yl)-5-((1-(dimethylamino)propan-2-yl)oxy)-7-(1-methyl-1H-pyrazol-4-yl)quinazolin-4-amine], the IC50 in experiment [3] is below 10 nM; in experiment [4] it was at most 10 nM; in experiment [5], below 10 nM.

As for `C[C@H](Oc1cc(-c2cnn(C)c2)cc2ncnc(Nc3ccc4ncccc4c3F)c12)[C@@H]1COCCN1` [Example 157, N-(5-fluoroquinolin-6-yl)-7-(1-methyl-1H-pyrazol-4-yl)-5-((S)-1-((S)-morpholin-3-yl)ethoxy)quinazolin-4-amine], the IC50 in experiment [3], in experiment [4] and in experiment [5] was above 50.1 nM each time.

With `C[C@@H](Oc1cc(N2CC[C@@H](N(C)C)C2)cc2ncnc(Nc3ccc4ncccc4c3F)c12)C1COC1` [Example 79, 7—((R)-3-(dimethylamino)pyrrolidin-1-yl)-N-(5-fluoroquinolin-6-yl)-5-((R)-1-(oxetan-3-yl)ethoxy)quinazolin-4-amine], the figures for the IC50 in experiment [3], in experiment [4] and in experiment [5] were below 10 nM, at most 10 nM and below 10 nM, respectively.

Consider `C[C@H](CN(C)C)Oc1cc(-c2cnn(C)c2)cc2c1c(Nc1ccc3ncccc3c1F)nc[n+]2[O-]` (single isomer, unassigned) [Example 127], for which the IC50 was below 10 nM in experiment [3], 10.1 to 50 nM in experiment [4] and below 10 nM in experiment [5].

On to `C[C@H](CN(C)C)Oc1cc(-c2cn[nH]c2)cc2ncnc(Nc3ccc4ncccc4c3F)c12` [Example 49, (R)-5-((1-(dimethylamino)propan-2-yl)oxy)-N-(5-fluoroquinolin-6-yl)-7-(1H-pyrazol-4-yl)quinazolin-4-amine], for which the figures for the IC50 in experiment [3], in experiment [4] and in experiment [5] were below 10 nM, at most 10 nM and below 10 nM, respectively.
